Test results taken from patent publication US9410148B2, “Method for constructing libraries of non-standard peptide compounds comprising N-methyl amino acids and other special (non-standard) amino acids and method for searching and identifying active species” (THE UNIVERSITY OF TOKYO, priority 2010, dated 2016).
Blank lines part the entries; values can stand above or below the molecule they belong to. Bridge positions count the residues as written; N and C are the ends. Square brackets hold non-standard residues; d marks the D form. Peptide text beside a SMILES is read from it. NMeF = CN[C@@H](Cc1ccccc1)C(=O)O; NMeS = CN[C@@H](CO)C(=O)O; Sar = CNCC(=O)O

Assays:
E6AP-HECT [1] = molecular target: T1, E6AP-HECT (Homo sapiens, UniProt Q05086); assay: Determination of binding constant using SPR (BIACORE T100, streptavidin sensor chip)
T1 construct: The C terminal domain of E6AP, consisting of about 350 amino acid residues, is called the HECT
T1 sequence (Q05086 495-852 isoform Q05086-2 limits assumed): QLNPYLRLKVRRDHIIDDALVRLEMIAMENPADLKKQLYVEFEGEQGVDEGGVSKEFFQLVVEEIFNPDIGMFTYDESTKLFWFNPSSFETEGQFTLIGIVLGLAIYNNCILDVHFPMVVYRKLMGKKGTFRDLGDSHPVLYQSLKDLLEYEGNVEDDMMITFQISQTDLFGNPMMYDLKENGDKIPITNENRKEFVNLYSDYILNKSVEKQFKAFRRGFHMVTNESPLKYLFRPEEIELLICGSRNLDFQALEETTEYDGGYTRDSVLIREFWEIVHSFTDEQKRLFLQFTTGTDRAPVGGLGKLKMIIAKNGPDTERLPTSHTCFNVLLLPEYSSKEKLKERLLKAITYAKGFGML
Procedure: The binding constant of MCP11 to E6AP-HECT was analyzed by a surface plasmon resonance using BIACORE T100.
A streptavidin sensor chip (SA chip certified) was used as a sensor chip, an Avi-His-GB1-E6AP-HECT was used as a ligand, and MCP11 was used as an analyte. After E6AP-HECT was fixed to a sensor chip, the KD of MCP11 was 0.5 nM.

E6AP-HECT [2] = molecular target: T2, E6AP-HECT (Homo sapiens, UniProt Q05086); assay: KD / nM
T2 construct: The C terminal domain of E6AP, consisting of about 350 amino acid residues, is called the HECT
Text: Table printed on a drawing sheet, Figure 5-4
Head of the field: KD / nM
Biotinylated E6AP-HECT was fixed to the streptavidin chip to analyze affinity using the peptides. (Example 7)
First copying reader's note: Brackets drawn under MCP11 and CP11 link the N-terminal CH2CO to the second Cys (cyclic peptides); the raised Me marks and underlining denote N-methyl residues.
Where the first naming reader finds the target: description_of_the_figure: Biotinylated E6AP-HECT was fixed to the streptavidin chip to analyze affinity using the peptides.
T2 sequence (Q05086 whole entry, looked up, the tested form may be a part): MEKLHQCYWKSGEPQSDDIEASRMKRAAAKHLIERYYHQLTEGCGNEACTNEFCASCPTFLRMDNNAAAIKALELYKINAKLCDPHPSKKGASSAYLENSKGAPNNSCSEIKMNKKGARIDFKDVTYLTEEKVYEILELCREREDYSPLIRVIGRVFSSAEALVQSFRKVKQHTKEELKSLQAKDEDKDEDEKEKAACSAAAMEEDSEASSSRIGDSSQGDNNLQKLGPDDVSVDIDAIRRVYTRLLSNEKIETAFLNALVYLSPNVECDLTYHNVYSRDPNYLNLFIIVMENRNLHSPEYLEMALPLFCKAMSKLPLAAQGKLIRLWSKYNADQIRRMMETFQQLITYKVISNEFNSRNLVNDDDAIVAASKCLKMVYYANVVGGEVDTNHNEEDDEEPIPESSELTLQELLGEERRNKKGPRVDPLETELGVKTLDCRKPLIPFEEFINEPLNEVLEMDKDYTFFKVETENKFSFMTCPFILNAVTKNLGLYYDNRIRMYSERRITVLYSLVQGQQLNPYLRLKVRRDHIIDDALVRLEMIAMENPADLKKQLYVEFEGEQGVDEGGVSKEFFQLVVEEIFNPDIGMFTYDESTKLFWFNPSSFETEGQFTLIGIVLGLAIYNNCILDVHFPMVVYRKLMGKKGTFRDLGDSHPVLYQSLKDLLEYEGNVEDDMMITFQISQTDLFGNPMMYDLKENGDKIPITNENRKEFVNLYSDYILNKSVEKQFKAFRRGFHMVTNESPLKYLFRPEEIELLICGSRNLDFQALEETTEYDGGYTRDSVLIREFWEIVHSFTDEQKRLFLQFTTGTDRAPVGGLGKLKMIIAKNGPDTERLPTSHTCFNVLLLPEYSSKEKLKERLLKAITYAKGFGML

- Kd (E6AP-HECT [1]; surface plasmon resonance, Avi-His-GB1-E6AP-HECT fixed as ligand, peptide as analyte): 0.5 nM
SMILES: CC(C)[C@@H]1NC(=O)[C@H](CC(=O)O)NC(=O)[C@H](CS)NC(=O)[C@@H](Cc2c[nH]c3ccccc23)NC(=O)CSC[C@@H](C(=O)NCC(N)=O)NC(=O)[C@@H]2CCCN2C(=O)[C@H](Cc2ccccc2)N(C)C(=O)[C@H](Cc2ccc(O)cc2)NC(=O)CN(C)C(=O)[C@H](Cc2ccccc2)N(C)C(=O)[C@H](CCCNC(=N)N)NC(=O)CNC(=O)[C@H](CO)N(C)C1=O [MCP11, Cyclo(-Ac-^DWCDV^MeSGR^MeF^MeGY^MeFPC)G-OH] ({CH2CO}-[dW]CDV[NMeS]GR[NMeF][Sar]Y[NMeF]PCG-NH2; thioether N-13)

- Kd (E6AP-HECT [2]): 100 to 1000 nM
SMILES: CC(=O)N[C@H](Cc1c[nH]c2ccccc12)C(=O)N[C@@H](CS)C(=O)N[C@@H](CC(=O)O)C(=O)N[C@H](C(=O)N(C)[C@@H](CO)C(=O)NCC(=O)N[C@@H](CCCNC(=N)N)C(=O)N(C)[C@@H](Cc1ccccc1)C(=O)N(C)CC(=O)N[C@@H](Cc1ccc(O)cc1)C(=O)N(C)[C@@H](Cc1ccccc1)C(=O)N1CCC[C@H]1C(=O)N[C@@H](CS)C(=O)NCC(N)=O)C(C)C [MLP11:, CH3CO-wCDV^MeSGR^MeF^MeGY^MeFPCG-NH2] (Ac-[dW]CDV[NMeS]GR[NMeF][Sar]Y[NMeF]PCG-NH2)

- difference in the binding ability (E6AP-HECT [1]; KD of MLP11 relative to MCP11): ≥ 200 times
SMILES: CC(=O)N[C@H](Cc1c[nH]c2ccccc12)C(=O)N[C@@H](CS)C(=O)N[C@@H](CC(=O)O)C(=O)N[C@H](C(=O)N(C)[C@@H](CO)C(=O)NCC(=O)N[C@@H](CCCNC(=N)N)C(=O)N(C)[C@@H](Cc1ccccc1)C(=O)N(C)CC(=O)N[C@@H](Cc1ccc(O)cc1)C(=O)N(C)[C@@H](Cc1ccccc1)C(=O)N1CCC[C@H]1C(=O)N[C@@H](CS)C(=O)NCC(N)=O)C(C)C [MLP11] (Ac-[dW]CDV[NMeS]GR[NMeF][Sar]Y[NMeF]PCG-NH2)
